Measurements from patent publication US11077119B2, “Enhanced brain bioavailability of galantamine by selected formulations and transmucosal administration of lipophilic prodrugs” (Neurodyn Life Sciences Inc., priority 2012, dated 2021).
“And” between values parts separate entries of the source, which are not always exact repeats. Equal values may be shown once. Read-outs that look alike come from different tables or passages of the source.

Tests used:
[1] = 3 mg/kg
Experimental: The pharmacokinetics and brain-to-blood concentration ratios (BBRC) of several galantamine derivatives and their cleavage product galantamine were evaluated after intranasal administration in Swiss albino mice at a dose of 3 mg/kg. After extraction from brain and blood, the drug concentrations were determined by LC/MS/MS. For comparison, the BBRC for the parent drug galantamine was also determined.

[2] = tested on: rats; details: rat, in vivo
[3] = in vivo
Experimental: The study was performed in dogs. A single dose of 4 mg/kg intranasal Memogain was administered and the plasma levels of Memogain and liberated galantamine were determined as a function of time after administration.

[4] = tested on: dogs; details: dog, in vivo
[5] = tested on: scopolamine-induced amnesia in mice; experiment: Reversal of scopolamine-induced amnesia in T-maze; assay type: in vivo; details: scopolamine i.p.; intranasal Memogain versus galantamine
Source text: We therefore used pharmacodynamics studies to determine the effective concentrations of parent drug in suitable experimental conditions, such as the reversal of scopolamine-induced temporary amnesia in the T-maze cognitive paradigm studied in mice. These studies confirmed that several fold higher (up to 20 fold) BBRC of parent drug (and related effectiveness in cognitive enhancement) can be achieved by transmucosal delivery of pro-drug formulations via the nasal or buccal cavity.
Mice were treated with scopolamine to induce acute amnesia and were then tested for performance in a T-maze, in the absence or presence of […] galantamine or intranasal Memogain (FIG. 7). […] Mice were challenged with Scopolamine i.p. in a T-maze assay to induce disorientation/amnesia (set to 0% performance recovery). Co-application of galantamine (i.p.) or of Memogain® (i.n.) rescues orientation in the T-maze in a dose-dependent manner.

[6] = in vivo
[7] = set-up: species or system Wistar rats; details: rat, in vivo, 3 mg/kg
Experimental: The first-pass effect of Gln-1062 was evaluated after intravenous and intraportal dosing of 3 mg/kg in Wistar rats (FIG. 8).

[8] = target: acetylcholinesterase (AChE) (Homo sapiens, UniProt P22303); experiment: esterase inhibition compared with galantamine; assay type: biochemical; details: read-out: esterase inhibition, relative to that induced by the same concentration of galantamine
Chain of acetylcholinesterase (AChE) (P22303 32-614): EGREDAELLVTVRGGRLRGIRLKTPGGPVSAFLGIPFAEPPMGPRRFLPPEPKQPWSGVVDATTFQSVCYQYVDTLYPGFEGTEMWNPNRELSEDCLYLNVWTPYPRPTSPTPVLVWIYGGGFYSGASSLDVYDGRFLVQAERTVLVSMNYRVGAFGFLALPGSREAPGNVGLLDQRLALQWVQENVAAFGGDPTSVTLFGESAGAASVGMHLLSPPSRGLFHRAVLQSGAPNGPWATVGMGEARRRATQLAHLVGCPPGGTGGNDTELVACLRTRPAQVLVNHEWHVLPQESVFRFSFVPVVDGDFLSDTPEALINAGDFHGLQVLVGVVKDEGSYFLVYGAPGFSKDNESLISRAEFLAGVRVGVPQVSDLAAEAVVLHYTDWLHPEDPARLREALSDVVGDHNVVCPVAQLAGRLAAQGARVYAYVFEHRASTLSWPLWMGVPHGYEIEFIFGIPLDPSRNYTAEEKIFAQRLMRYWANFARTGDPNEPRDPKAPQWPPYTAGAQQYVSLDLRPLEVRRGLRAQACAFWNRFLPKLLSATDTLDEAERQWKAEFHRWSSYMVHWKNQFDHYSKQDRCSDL
Experimental: Said derivative of galantamine can be obtained by a one-step chemical modification of the parent drug (galantamine). The modification almost completely abolishes the pharmacological activity of galantamine on its two major targets in the human body, nicotinic acetylcholine receptor (nAChR) and acetylcholinesterase (AChE).
At the physiologically interesting concentration of 1 μM, Memogain has less than 4% of the esterase inhibition induced by the same concentration of galantamine.

[9] = tested on: ferrets; experiment: Gastro-intestinal side effects in ferrets; details: i.p.
Experimental: These studies were performed in ferrets that were dosed i.p. with either 20 mg/kg galantamine (maximal tolerated dose), or with 20, 40 and 80 mg/kg Memogain, respectively.

[10] = physchem; assay type: physicochemical
Experimental: Free Base in Water: 26 μg/ml (66 μM)
Maleate in Water: 7.5 mg/ml (15 mM)
Maleate in 0.9% NaCl: 0.6 mg/ml (1.5 mM)
Free Base in Cyclodextrin-Vehicle^1): 8.9 mg/ml (23 mM)
Maleate in Cyclodextrin-Vehicle): 21 mg/ml (41 mM) ^1) 15% (109 mM) Hydroxypropyl-β-cyclodextrin, 96 mM NaCl

[11] = tested on: rats; details: rat, in vivo; remark: listed apart in the source
[12] = tested on: dogs; experiment: Safety after intravenous bolus; assay type: in vivo
Experimental: Example 13. Memogain is at Least 10 Times Safer than Galantamine
This study was performed in dogs, and both drugs were administered as intravenous bolus. The lower toxicity of Memogain is due to the much lower steady-state plasma levels of galantamine resulting from enzymatic cleavage of the pro-drug (FIG. 11).

[13] = assay type: in vivo
Source text: Intranasal dosing can be done with simple spray-pump methods, although also many other methods can be used.

[14] = mouse, in vivo
Experimental: Mice were injected with 3 mg/kg i.v. of either Memogain or galantamine.

[15] = Solubility test of Memogain salts in water (HPLC); assay type: physicochemical; details: after warming to >50° C.; precipitation seeding avoided
Experimental: 10 mg of the corresponding salt and 100 microliters of water were sonicated for 5 min at r.t. The resulting solution or suspension was centrifuged for 3 min. and filtered using a filter tip. 10 microliters of the filtrate was transferred in a volumetric flask and diluted to 10.0 ml with water to obtain the sample solution. 20 microliters of this sample solution was injected for HPLC and the amount of Memogain quantified using a Merck Chromolith RP18 column and a gradient of 5% to 60% acetonitrile and water, both solvents containing 0.1% formic acid, injection volume: 20 microliters.

COc1ccc2c3c1O[C@H]1C[C@@H](OC(=O)c4ccccc4)C=C[C@@]31CCN(C)C2 [GLN-1062, (4aS,6R,8aS)-4a,5,9,10,11,12-hexahydro-3-methoxy-11-methyl-6H-Benzofuro[3a,3,2-ef][2]benzazepin-6-ol, 6-benzoate]
BBRC compared with galantamine ([1]; mouse, in vivo): particularly large BBRC
adverse effects compared with galantamine [2]: much less adverse effects
half-life ([3]; dog): 1.5 h
Kp at 120 min ([3]; dog, 4 mg/kg): 9
adverse effects compared with galantamine [4]: much less adverse effects
reversal of acutely induced amnesia (T-maze performance) [5]: more effective than galantamine
GI-related side effects [6]: GI-related side effects had practically disappeared
maximal concentration levels in the brain, compared with i.v. administration [7]: similarly high maximal concentration levels
inhibition at 1 µM [8]: < 4%
lower toxicity as compared to galantamine ([9]; from dose dependency of adverse effects (20, 40, 80 mg/kg)): at least 4 times
solubility ([10]; aqueous with cosolvent or surfactant or cyclodextrin): 8900 µg/mL and 23000 µM
solubility ([10]; water): 26 µg/mL and 66 µM
adverse effects compared with galantamine [11]: much less adverse effects
safety compared with galantamine [12]: at Least 10 Times
GI side effects ([13]; in vivo): no GI side effects were observed

COc1ccc2c3c1O[C@H]1C[C@@H](O)C=C[C@@]31CCN(C)C2 [galantamine]
Kp at 120 min ([3]; in vivo, 4 mg/kg): 1 to 1.5
half-life ([3]; in vivo, 4 mg/kg): 6 h
BBRC [14]: ~1:1
maximal tolerated dose [9]: 20 mg/kg

COc1ccc2c3c1O[C@H]1C[C@@H](OC(=O)c4ccccc4)C=C[C@@]31CCN(C)C2.O=C(O)/C=C\C(=O)O [Memogain maleate]
Solubility in 0.9% NaCl ([10]; 0.9% NaCl): 0.6 mg/ml and 1.5 mM
Solubility in Cyclodextrin-Vehicle ([10]; 15% (109 mM) Hydroxypropyl-β-cyclodextrin, 96 mM NaCl): 21 mg/ml and 41 mM
Solubility in Water ([10]; water): 7.5 mg/ml and 15 mM

COc1ccc2c3c1O[C@H]1C[C@@H](OC(=O)c4ccccc4)C=C[C@@]31CCN(C)C2.O=C(O)C(O)C(O)C(O)C(O)CO [Memogain gluconate, galantamine benzoate gluconate]
BBRC compared with galantamine ([1]; intranasal, LC/MS/MS): much larger BBRC than galantamine
stability of metastable high-concentration aqueous solution [15]: stable for hours and days
local sensation on intranasal dosing ([13]; intranasal): no burning sensation to nose
